In patent US7557144B1, “Modulation of protein expression using carbocyclic aryl alkenoic acid derivatives” (The Johns Hopkins University, priority 2000, dated 2009):

What was measured:
CFTR [1] = assay: CFTR immunoblot with anti-CFTR antibody 181 in IB3-1 cells; assay type: cell-based, human; conditions: increasing concentrations of 4-phenylbutyrate (FIG. 14)
Experimental: (§1) 3. Immunoblot analysis. Whole cell lysates were prepared by solubilization with 2% SDS at 95° C. Protein concentration in the lysates was determined using the Bio-Rad DC assay reagents with bovine plasma g-globulin as a standard (Bio-Rad Laboratories, Hercules, Calif.). Equal amounts of protein was resolved on 5, 7, 8, or 9% SDS-polyacrylamide gels. Proteins were transferred to nitrocellulose, and immunodetection was performed as previously described (25). Nonspecific binding was blocked by incubation of the nitrocellulose with 2% gelatin or 10% nonfat day milk. Primary antisera and secondary antibodies were applied in buffer containing 0.4% BSA overnight at 4° C. and for 1 h at room temperature, respectively. Detection of immunoreactivity was performed with the enhanced chemiluminescence reagent (ECL, Amer-sham) and fluorography. Recombinant bovine Hsc70 ([…]) was purchased from Stressgen Biotechnologies for use in constructing a standard curve of Hsc70 immunoreactivity. Immunoblots containing the bovine Hsc70 were probed with the Hsc70-specific polyclonal antiserum.
Control cells at 37° C. show band B CFTR, but virtually undetectable band C CFTR. These cells as expected show very little Hsp70, the heat shock inducible chaperone. At 27° C., a lower temperature, there is very little Hsp70 as expected, but as expected, there has been induction of band C CFTR.

Hsp40 = Hsp40 immunoblot of IB3-1 lysates; assay type: cell-based, human; conditions: IB3-1 cells, increasing concentrations of 4-PBA
Experimental: as §1
(§2) Whether 4-PBA would regulate expression of a number of other molecular chaperones in IB3-1 cells (FIG. 2) was assessed next. […] Hsp90 is required for correct folding and function of a number of cellular proteins (16). […] Hsp70 (Hsp72) expression is induced by heat shock and the presence of denatured proteins within the eukaryotic cell (16). In Escherichia coli, the Hsp70 homologue DnaK and the Hsp40 homologue DnaJ act to promote protein folding (16). Hdj2 is the member of the Hsp40 family that specifically interacts with and regulates the ATPase activity of Hsc70. Hdj2 also interacts with CFTR during CFTR translation (26).
(§3) FIGS. 2A-2E are more specifically explained as follows. […]
(§4) FIGS. 5A-C are explained in more detail as follows. […] Cellular homogenates were prepared in 2% SDS as described in METHODS, and 5 μg of total cellular protein were analyzed by immunoblot for Hsc70 using rabbit polyclonal antiserum, Hsp90, Hsp70, Hsp40 as described above under General Comments. […]

Hsc70-CFTR complexes = target: T1, Hsc70-CFTR complexes (Homo sapiens, UniProt P11142+P13569, DEL508-508); assay: Immunoprecipitation of Hsc70-CFTR complexes from untreated IB3-1 cells with 4-PBA in lysis and wash buffers; assay type: binding; conditions: 1 mM 4-PBA added to RIPA lysis and wash buffers
T1 construct: endogenous in cells; host or cells: IB3-1 (RIPA lysate, immunoprecipitated with anti-Hsc70 serum)
Experimental: 5. Immunoprecipitation. Cultured cells were solubilized by incubation for 1 h at 4° C. in RIPA[50 mM Tris-Cl (pH8.0), 150 mM NaCl, 1% Triton X-100 (Bio-Rad or Fisher Scientific), 1% sodium deoxycholate (Sigma), and protease inhibitor cocktail (Sigma; used at 1:1,000 final dilution)]. Solubilized cells were then homogenized by passage 10 times through a 20-gauge needle and cleared by centrifugation at 15,000 g for 20 min at 4° C. Protein concentration was determined using the Bio-Rad DC reagents as above. Polyclonal Hsc70 antiserum was added to the cell lysates (2 μl/250 μg total protein, with equal amounts of protein at equal final concentrations for each condition within an experiment) and incubated at 4° C. over-night with gentle agitation. Immune complexes were captured with protein A-Sepharose 4B (Pharmacia Biotechnologies, Piscataway, N.J.) that had been preabsorbed with BSA for 45 min at 4° C. […]
The decrease in CFTR recovered by immunoprecipitation in proportion to the decrease in Hsc70 is consistent with 4-PBA not directly influencing the binding affinity of CFTR and Hsc70. This was further assessed by immunoprecipitating Hsc70-CFTR complexes from untreated IB3-1 cells either with or without 1 mM 4-PBA added to the RIPA lysis and wash buffers.

Hsp90 = Hsp90 immunoblot of IB3-1 lysates; assay type: cell-based, human; conditions: IB3-1 cells, increasing concentrations of 4-PBA
Experimental: as §1, §2, §3, §4

[2] = set-up: fraction of administered 4-PBA excreted as PAG in the urine: unit not given here; conditions: cited from earlier work
[3] = growth medium, 37° C., 5% CO2; previously determined (ref. 30); cited from earlier work
[4] = administered 4-PBA; cited from earlier work
Hdj2 = Hdj2 immunoblot of IB3-1 lysates; assay type: cell-based, human; conditions: IB3-1 cells, increasing concentrations of 4-PBA
Experimental: as §1
(§5) Whether 4-PBA would regulate expression of a number of other molecular chaperones in IB3-1 cells (FIG. 2) was assessed next. […] Hsp90 is required for correct folding and function of a number of cellular proteins (16). […]

CFTR [5] = conditions: IB3-1 cells; previously shown (ref. 30); cited from earlier work
calnexin = assay: Calnexin immunoblot of IB3-1 lysates; assay type: cell-based, human; conditions: IB3-1 cells, increasing concentrations of 4-PBA
Experimental: as §1, §5

ΔF508-CFTR/Hsc70 complex = assay: Immunoprecipitation of Hsc70 and coimmunoprecipitation of CFTR from treated IB3-1 cells; assay type: cell-based, human; conditions: 2 days
Hsc70 = Hsc70 immunoblot of IB3-1 whole cell lysates; assay type: cell-based, human; conditions: IB3-1 cells
Experimental: as §1

[6] = system: CF airway epithelial cells; conditions: Rubenstein et al. 1997; cited from earlier work
[7] = increasing concentrations of 4-PBA

T1 sequence (P13569 with tags, fused parts or gaps DEL508-508): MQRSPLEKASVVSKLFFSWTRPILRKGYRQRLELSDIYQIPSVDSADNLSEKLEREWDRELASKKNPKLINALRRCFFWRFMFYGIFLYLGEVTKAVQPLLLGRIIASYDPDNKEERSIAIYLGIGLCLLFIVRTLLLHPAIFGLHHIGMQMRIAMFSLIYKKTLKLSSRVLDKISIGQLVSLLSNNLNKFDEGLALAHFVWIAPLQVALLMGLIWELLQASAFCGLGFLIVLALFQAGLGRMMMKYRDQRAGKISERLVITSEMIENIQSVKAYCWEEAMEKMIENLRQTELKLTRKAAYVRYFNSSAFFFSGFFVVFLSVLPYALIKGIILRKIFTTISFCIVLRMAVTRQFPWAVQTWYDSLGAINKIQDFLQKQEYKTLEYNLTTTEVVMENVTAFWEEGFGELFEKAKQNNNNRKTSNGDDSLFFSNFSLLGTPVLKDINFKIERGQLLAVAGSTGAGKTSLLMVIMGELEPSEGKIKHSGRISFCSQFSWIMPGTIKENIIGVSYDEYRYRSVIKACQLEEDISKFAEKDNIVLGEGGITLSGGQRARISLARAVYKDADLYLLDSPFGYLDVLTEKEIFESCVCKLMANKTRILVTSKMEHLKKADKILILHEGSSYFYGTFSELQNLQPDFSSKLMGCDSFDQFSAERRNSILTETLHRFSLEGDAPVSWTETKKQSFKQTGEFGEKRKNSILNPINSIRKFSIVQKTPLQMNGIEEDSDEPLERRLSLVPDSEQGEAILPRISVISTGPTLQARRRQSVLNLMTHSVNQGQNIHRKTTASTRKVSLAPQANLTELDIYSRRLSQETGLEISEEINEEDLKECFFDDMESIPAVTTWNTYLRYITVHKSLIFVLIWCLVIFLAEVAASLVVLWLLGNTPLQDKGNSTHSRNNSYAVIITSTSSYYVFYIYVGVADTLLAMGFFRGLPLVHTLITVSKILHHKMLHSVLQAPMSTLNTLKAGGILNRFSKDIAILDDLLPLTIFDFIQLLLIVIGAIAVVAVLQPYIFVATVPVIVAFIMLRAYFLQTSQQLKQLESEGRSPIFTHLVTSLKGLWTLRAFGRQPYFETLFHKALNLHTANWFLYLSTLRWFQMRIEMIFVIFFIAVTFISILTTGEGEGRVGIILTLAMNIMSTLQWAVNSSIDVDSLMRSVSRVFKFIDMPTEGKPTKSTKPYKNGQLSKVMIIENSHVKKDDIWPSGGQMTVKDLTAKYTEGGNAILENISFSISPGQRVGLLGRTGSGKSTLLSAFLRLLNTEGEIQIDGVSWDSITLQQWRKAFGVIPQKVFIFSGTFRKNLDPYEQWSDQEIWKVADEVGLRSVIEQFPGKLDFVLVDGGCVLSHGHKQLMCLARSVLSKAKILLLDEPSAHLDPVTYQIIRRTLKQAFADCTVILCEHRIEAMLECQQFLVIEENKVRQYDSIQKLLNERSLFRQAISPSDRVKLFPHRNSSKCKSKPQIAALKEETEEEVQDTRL
T1 sequence (P11142 2-646 limits assumed, stated change not applied): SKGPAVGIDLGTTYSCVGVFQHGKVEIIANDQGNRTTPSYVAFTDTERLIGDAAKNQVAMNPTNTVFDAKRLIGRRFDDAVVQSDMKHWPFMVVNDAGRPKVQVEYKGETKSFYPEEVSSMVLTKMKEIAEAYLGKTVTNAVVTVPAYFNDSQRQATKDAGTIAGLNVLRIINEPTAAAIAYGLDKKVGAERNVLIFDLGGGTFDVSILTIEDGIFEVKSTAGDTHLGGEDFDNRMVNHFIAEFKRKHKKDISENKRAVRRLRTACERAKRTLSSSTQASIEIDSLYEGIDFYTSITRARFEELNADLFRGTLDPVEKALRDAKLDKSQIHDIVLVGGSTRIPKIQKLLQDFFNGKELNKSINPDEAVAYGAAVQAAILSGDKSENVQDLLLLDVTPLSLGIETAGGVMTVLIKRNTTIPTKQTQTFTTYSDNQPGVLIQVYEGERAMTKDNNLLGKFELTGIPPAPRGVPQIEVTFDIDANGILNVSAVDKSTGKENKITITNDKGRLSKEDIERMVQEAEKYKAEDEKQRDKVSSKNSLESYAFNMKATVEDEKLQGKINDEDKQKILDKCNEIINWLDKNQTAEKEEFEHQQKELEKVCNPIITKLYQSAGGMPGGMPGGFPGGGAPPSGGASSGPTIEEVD

SMILES: O=C(O)CCCc1ccccc1 [4-PBA, 4-phenylbutyric acid]
- band C CFTR (CFTR [1]): promotes appearance of band C CFTR
- expression of Hsp40 (Hsp40): did not affect
- recovery of Hsc70 and associated CFTR (Hsc70-CFTR complexes): unaltered
- expression of Hsp90 (Hsp90): did not affect
- fraction of administered 4-PBA excreted as PAG in the urine ([2]; in vivo): Ninety
- in vivo metabolic conversion ([2]; then conjugated with glutamine to phenacetylglutamine, excreted in urine (ref. 6)): rapidly and completely converted by β-oxidation to phenylacetate
- time for which a constant concentration is maintained under culture conditions [3]: at least 2 days
- toxicity [4]: little toxicity beyond a slightly bitter taste, mild stomach discomfort or mild peripheral edema if severely anemic
- expression of Hdj-2 (Hdj2): did not affect
- 4-PBA concentration leading to increased overall expression and appearance of mature CFTR (CFTR [5]): > 0.1 mM
- expression of calnexin (calnexin): did not affect
- 4-PBA concentration at which CFTR was undetectable in the immunoprecipitates (ΔF508-CFTR/Hsc70 complex): > 1 mM
- immunoprecipitable Hsc70 (ΔF508-CFTR/Hsc70 complex; [7]): decreased amounts
- immunoreactive CFTR recovered in complex with Hsc70 (ΔF508-CFTR/Hsc70 complex; [7]): less immunoreactive CFTR was recovered
- decrease in Hsc70 immunoreactivity (Hsc70; 4-PBA 2 days, densitometry): ~50%
- total Hsc70 immunoreactivity in whole cell lysates (Hsc70; increasing concentrations of 4-PBA, 2 days): declined in a dose-dependent fashion
- cAMP-mediated chloride transport [6]: promote functional correction of cAMP-medicated chloride transport
